From patent publication US10501414B2, “Indole analogs as 5-oxo-ETE receptor antagonists and method of use thereof” (THE ROYAL INSTITUTION FOR THE ADVANCEMENT OF …, priority 2015, dated 2019)
Values joined by “and” are separate entries in the source; they are usually repeats but may differ in a detail not shown here. Identical values can stand only once.

What follows are compounds tested against T1, OXE receptor (Homo sapiens, UniProt Q8TDS5) (assay: Calcium mobilization in human granulocytes (inhibition of 5-oxo-ETE-induced calcium mobilization)). Conditions: 5-oxo-ETE-induced calcium mobilization.
T1 construct: Human granulocytes (≥95% neutrophils) are prepared from whole blood; endogenous in cells; host or cells: human granulocytes (≥95% neutrophils) from whole blood
Type: cell-based
Description: Evaluation of Antagonist Activity: Calcium Mobilization in Human Granulocytes
Human granulocytes (≥95% neutrophils) are prepared from whole blood using Dextran 500 to remove red blood cells, followed by centrifugation over Ficoll-Paque to remove mononuclear cells and hypotonic lysis of any remaining red blood cells. After centrifugation the granulocytes are suspended in Ca^++/Mg^++-free phosphate-buffered saline (PBS^−). Granulocytes (10^7 cells/ml) are incubated with the acetoxymethyl ester of indo-1 (1 μM) for 30 min, followed by washing twice with PBS^− and resuspension in the same medium to obtain a final cell concentration of 3.22×10^6 cells/ml. Five minutes prior to commencing data acquisition, Ca^++ and Mg^++ are added to give final concentrations of 1.8 and 1 mM, respectively. Calcium measurements are performed at 37° C. using a spectrofluorometer equipped with a temperature-controlled cuvette holder and a magnetic stirrer. The excitation and emission wavelengths are 331 nm and 410 nm, respectively. Following stabilization of the baseline, fluorescence is measured for 1 min, prior to the addition of either vehicle or various concentrations of a potential 5-oxo-ETE antagonist. Two min later, 5-oxo-ETE (10 nM) is added, followed 1 min later by digitonin (final concentration 0.1%). Data acquisition is terminated after a further 0.5 min. Fmax is determined from fluorescence measurements after the addition of digitonin, whereas Fmin is determined after determination of autofluorescence as described in the literature. A dissociation constant of 250 nM for the indo-1/Ca^++ complex is used to calculate [Ca^++]i. The % inhibition of 5-oxo-ETE-induced calcium mobilization by the antagonist is calculated as follows: Inhibition (%)=(1−(Caant/Ca^++veh))×100 where Caant is the increase in cytosolic calcium levels induced by 5-oxo-ETE (10 nM) following the addition of a potential antagonist, whereas Caveh is the response induced by 5-oxo-ETE following addition of vehicle alone.

T1 sequence (Q8TDS5 whole entry): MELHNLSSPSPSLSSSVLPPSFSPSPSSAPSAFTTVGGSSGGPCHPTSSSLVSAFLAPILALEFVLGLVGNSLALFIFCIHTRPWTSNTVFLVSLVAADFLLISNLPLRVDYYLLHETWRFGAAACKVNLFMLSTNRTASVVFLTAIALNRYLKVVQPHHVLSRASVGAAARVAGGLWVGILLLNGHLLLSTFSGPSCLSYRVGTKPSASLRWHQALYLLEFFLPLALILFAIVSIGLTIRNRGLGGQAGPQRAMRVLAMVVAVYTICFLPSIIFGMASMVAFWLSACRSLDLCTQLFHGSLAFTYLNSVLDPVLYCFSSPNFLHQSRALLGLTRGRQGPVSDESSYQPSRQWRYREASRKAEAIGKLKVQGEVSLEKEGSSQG

Compound	antagonist activity / potency in words
COc1ccccc1CCCCCC(O)c1c(C(=O)C[C@H](C)CC(=O)O)c2cc(Cl)ccc2n1C (stereo partly drawn) [Compound 49M]	antagonists and 5-oxo-ETE-induced calcium mobilization inhibitors
C[C@H](CC(=O)O)CC(=O)c1c(C(O)CCCCCc2ccc(F)cc2)n(C)c2ccc(Cl)cc12 (stereo partly drawn) [Compound 54M]	antagonists and 5-oxo-ETE-induced calcium mobilization inhibitors
CCC(C)CCCc1c(C(=O)CC(C)CC(=O)O)c2cc(Cl)ccc2n1C (stereo not drawn) [Compound V225, reference compound]	somewhat less potent

Same assay, conditions: 5-oxo-ETE-induced calcium mobilization; read-out: potency (IC50) in the picomolar range

IC50	Compound
~33 pM	CC(CC(=O)O)CC(=O)c1c(CCCCCCc2cccc(Cl)c2)n(C)c2ccc(Cl)cc12 (racemic) [Compound 20, 5-(5-chloro-2-(6-(3-chlorophenyl)hexyl)-1-methyl-1H-indol-3-yl)-3-methyl-5-oxopentanoic acid]
~72 pM	CC(CC(=O)O)CC(=O)c1c(CCCCCCc2cccc(F)c2)n(C)c2ccc(Cl)cc12 (racemic) [Compound 21, 5-(5-chloro-2-(6-(3-fluorophenyl)hexyl)-1-methyl-1H-indol-3-yl)-3-methyl-5-oxopentanoic acid]
~86 pM	COc1cccc(CCCCCCc2c(C(=O)CC(C)CC(=O)O)c3cc(Cl)ccc3n2C)c1 (racemic) [Compound 22, 5-(5-chloro-2-(6-(3-methoxyphenyl)hexyl)-1-methyl-1H-indol-3-yl)-3-methyl-5-oxopentanoic acid]

Same assay, conditions: inhibition of calcium mobilization induced by 5-oxo-ETE (10 nM) in human granulocytes; bracketed figure in cell = n; read-out: IC50

Compound	IC50
COc1cccc(CCCCCCc2c(C(=O)CC(C)CC(=O)O)c3cc(Cl)ccc3n2C)c1 (racemic) [Compound 22, 5-(5-chloro-2-(6-(3-methoxyphenyl)hexyl)-1-methyl-1H-indol-3-yl)-3-methyl-5-oxopentanoic acid]	86 ± 17 pM
COc1cccc(CCCCCCc2c(C(=O)C[C@H](C)CC(=O)O)c3cc(Cl)ccc3n2C)c1 (single isomer, unassigned) [Compound 52]	51 ± 7 pM
COc1cccc(CCCCCCc2c(C(=O)C[C@@H](C)CC(=O)O)c3cc(Cl)ccc3n2C)c1 (single isomer, unassigned) [Compound 67]	50000 ± 13000 pM
CC(CC(=O)O)CC(=O)c1c(CCCc2ccccc2)n(C)c2ccc(Cl)cc12 (stereo not drawn) [Compound 12, 5-(5-chloro-1-methyl-2-(3-phenylpropyl)-1H-indol-3-yl)-3-methyl-5-oxopentanoic acid, reference compound]	223000 ± 18000 pM
CC(CC(=O)O)CC(=O)c1c(CCCCCc2ccccc2)n(C)c2ccc(Cl)cc12 (stereo not drawn) [Compound 14, 5-(5-chloro-1-methyl-2-(5-phenylpentyl)-1H-indol-3-yl)-3-methyl-5-oxopentanoic acid]	11000 ± 1000 pM
COc1ccccc1CCCCCC(O)c1c(C(=O)C[C@H](C)CC(=O)O)c2cc(Cl)ccc2n1C (stereo partly drawn) [Compound 49M]	580 ± 210 pM
C[C@H](CC(=O)O)CC(=O)c1c(C(O)CCCCCc2cccc(Cl)c2)n(C)c2ccc(Cl)cc12 (stereo partly drawn) [Compound 50M]	80 ± 20 pM
C[C@H](CC(=O)O)CC(=O)c1c(C(O)CCCCCc2ccc(F)cc2)n(C)c2ccc(Cl)cc12 (stereo partly drawn) [Compound 54M]	1400 ± 400 pM
CC(CC(=O)O)CC(=O)c1c(COCCCc2ccccc2)n(C)c2ccc(Cl)cc12 (stereo not drawn) [Compound 83, 5-(5-chloro-1-methyl-2-((3-phenylpropoxy)methyl)-1H-indol-3-yl)-3-methyl-5-oxopentanoic acid]	700 pM
CC(CC(=O)O)CC(=O)c1c(/C=C/CCCCc2ccccc2)n(C)c2ccc(Cl)cc12 (stereo not drawn) [Compound 85, (E)-5-(5-chloro-1-methyl-2-(6-phenylhex-1-en-1-yl)-1H-indol-3-yl)-3-methyl-5-oxopentanoic acid]	1930 ± 600 pM
CC(CC(=O)O)CC(=O)c1c(CCCCC=Cc2ccccc2)n(C)c2ccc(Cl)cc12 (stereo not drawn) [Compound 94, 5-[5-Chloro-1-methyl-2-(6-phenyl-hex-5-enyl)-1H-indol-3-yl]-3-methyl-5-oxopentanoic acid]	650 ± 360 pM
C[C@H](CC(=O)O)CC(=O)c1c(CCCC/C=C\c2ccccc2)n(C)c2ccc(Cl)cc12 [Compound 95]	620 ± 290 pM
C[C@@H](CC(=O)O)CC(=O)c1c(CCCC/C=C\c2ccccc2)n(C)c2ccc(Cl)cc12 [Compound 96]	5500 pM
C[C@H](CC(=O)O)CC(=O)c1c(CCCC/C=C/c2ccccc2)n(C)c2ccc(Cl)cc12 [Compound 97]	71 ± 24 pM
C[C@@H](CC(=O)O)CC(=O)c1c(CCCC/C=C/c2ccccc2)n(C)c2ccc(Cl)cc12 [Compound 98]	1100 ± 190 pM
CCC(C)CCCc1c(C(=O)CC(C)CC(=O)O)c2cc(Cl)ccc2n1C (stereo not drawn) [Compound V225, reference compound]	88000 ± 26000 pM

Next, values leading:

IC50	Compound
38000 ± 8000 pM	CC(CC(=O)O)CC(=O)c1c(CCCCc2ccccc2)n(C)c2ccc(Cl)cc12 (racemic) [Compound 13, methyl 5-(5-chloro-1-methyl-2-(4-phenylbutyl)-1H-indol-3-yl)-3-methyl-5-oxopentanoic acid]
33 ± 3 pM	CC(CC(=O)O)CC(=O)c1c(CCCCCCc2cccc(Cl)c2)n(C)c2ccc(Cl)cc12 (racemic) [Compound 20, 5-(5-chloro-2-(6-(3-chlorophenyl)hexyl)-1-methyl-1H-indol-3-yl)-3-methyl-5-oxopentanoic acid]
72 ± 7 pM	CC(CC(=O)O)CC(=O)c1c(CCCCCCc2cccc(F)c2)n(C)c2ccc(Cl)cc12 (racemic) [Compound 21, 5-(5-chloro-2-(6-(3-fluorophenyl)hexyl)-1-methyl-1H-indol-3-yl)-3-methyl-5-oxopentanoic acid]
270 ± 60 pM	C[C@H](CC(=O)O)CC(=O)c1c(CCCCCCc2ccccc2F)n(C)c2ccc(Cl)cc12 (single isomer, unassigned) [Compound 48]
37 ± 5 pM	C[C@H](CC(=O)O)CC(=O)c1c(CCCCCCc2cccc(F)c2)n(C)c2ccc(Cl)cc12 (single isomer, unassigned) [Compound 51]
81000 ± 34000 pM	C[C@@H](CC(=O)O)CC(=O)c1c(CCCCCCc2ccccc2Cl)n(C)c2ccc(Cl)cc12 (single isomer, unassigned) [Compound 62]
2900 ± 100 pM	C[C@@H](CC(=O)O)CC(=O)c1c(CCCCCCc2ccccc2F)n(C)c2ccc(Cl)cc12 (single isomer, unassigned) [Compound 63]
54000 ± 23000 pM	COc1ccccc1CCCCCCc1c(C(=O)C[C@@H](C)CC(=O)O)c2cc(Cl)ccc2n1C (single isomer, unassigned) [Compound 64]
640 ± 100 pM	C[C@@H](CC(=O)O)CC(=O)c1c(CCCCCCc2cccc(Cl)c2)n(C)c2ccc(Cl)cc12 (single isomer, unassigned) [Compound 65]
1800 ± 300 pM	C[C@@H](CC(=O)O)CC(=O)c1c(CCCCCCc2cccc(F)c2)n(C)c2ccc(Cl)cc12 (single isomer, unassigned) [Compound 66]
4450 ± 1050 pM	C[C@@H](CC(=O)O)CC(=O)c1c(CCCCCCc2ccc(F)cc2)n(C)c2ccc(Cl)cc12 (single isomer, unassigned) [Compound 69]
440 ± 130 pM	CC(CC(=O)O)CC(=O)c1c(CCCCCCc2ccccc2Cl)n(C)c2ccc(Cl)cc12 (stereo not drawn) [Compound 17, 5-(5-chloro-2-(6-(2-chlorophenyl)hexyl)-1-methyl-1H-indol-3-yl)-3-methyl-5-oxopentanoic acid]
410 ± 70 pM	CC(CC(=O)O)CC(=O)c1c(CCCCCCc2ccccc2F)n(C)c2ccc(Cl)cc12 (stereo not drawn) [Compound 18, 5-(5-chloro-2-(6-(2-fluorophenyl)hexyl)-1-methyl-1H-indol-3-yl)-3-methyl-5-oxopentanoic acid]
180 ± 50 pM	COc1ccccc1CCCCCCc1c(C(=O)CC(C)CC(=O)O)c2cc(Cl)ccc2n1C (stereo not drawn) [Compound 19, 5-(5-chloro-2-(6-(2-methoxyphenyl)hexyl)-1-methyl-1H-indol-3-yl)-3-methyl-5-oxopentanoic acid]
630 ± 220 pM	CC(CC(=O)O)CC(=O)c1c(CCCCCCc2ccc(Cl)cc2)n(C)c2ccc(Cl)cc12 (stereo not drawn) [Compound 23, 5-(5-chloro-2-(6-(4-chlorophenyl)hexyl)-1-methyl-1H-indol-3-yl)-3-methyl-5-oxopentanoic acid]
800 ± 240 pM	CC(CC(=O)O)CC(=O)c1c(CCCCCCc2ccc(F)cc2)n(C)c2ccc(Cl)cc12 (stereo not drawn) [Compound 24, 5-(5-chloro-2-(6-(4-fluorophenyl)hexyl)-1-methyl-1H-indol-3-yl)-3-methyl-5-oxopentanoic acid]
630 ± 80 pM	COc1ccc(CCCCCCc2c(C(=O)CC(C)CC(=O)O)c3cc(Cl)ccc3n2C)cc1 (stereo not drawn) [Compound 25, 5-(5-chloro-2-(6-(4-methoxyphenyl)hexyl)-1-methyl-1H-indol-3-yl)-3-methyl-5-oxopentanoic acid]
1900 ± 300 pM	CC(CC(=O)O)CC(=O)c1c(CCCCCCc2cccc(O)c2)n(C)c2ccc(Cl)cc12 (stereo not drawn) [Compound 38, 5-(5-chloro-2-(6-(3-hydroxyphenyl)hexyl)-1-methyl-1H-indol-3-yl)-3-methyl-5-oxopentanoic acid]
550 ± 190 pM	C[C@H](CC(=O)O)CC(=O)c1c(CCCCCCc2ccccc2Cl)n(C)c2ccc(Cl)cc12 [Compound 47, (S)-5-(5-chloro-2-(6-(2-chlorophenyl)hexyl)-1-methyl-1H-indol-3-yl)-3-methyl-5-oxopentanoic acid]
100 ± 20 pM	COc1ccccc1CCCCCCc1c(C(=O)C[C@H](C)CC(=O)O)c2cc(Cl)ccc2n1C [Compound 49, (S)-5-(5-chloro-2-(6-(2-methoxyphenyl)hexyl)-1-methyl-1H-indol-3-yl)-3-methyl-5-oxopentanoic acid]
470 ± 160 pM	C[C@H](CC(=O)O)CC(=O)c1c(CCCCCCc2ccc(Cl)cc2)n(C)c2ccc(Cl)cc12 [Compound 53, (S)-5-(5-chloro-2-(6-(4-chlorophenyl)hexyl)-1-methyl-1H-indol-3-yl)-3-methyl-5-oxopentanoic acid]
390 ± 90 pM	C[C@H](CC(=O)O)CC(=O)c1c(CCCCCCc2ccc(F)cc2)n(C)c2ccc(Cl)cc12 [Compound 54, (S)-5-(5-chloro-2-(6-(4-fluorophenyl)hexyl)-1-methyl-1H-indol-3-yl)-3-methyl-5-oxopentanoic acid]

Same assay, conditions: relative to V230

reduction of potency compared to V230	Compound
about 8 fold	CC(CC(=O)O)CC(=O)c1c(CCCc2ccccc2)n(C)c2ccc(Cl)cc12 (stereo not drawn) [Compound 12, 5-(5-chloro-1-methyl-2-(3-phenylpropyl)-1H-indol-3-yl)-3-methyl-5-oxopentanoic acid, reference compound]
